Laboratory results published in patent US4528393A, “Derivatives having expectorant activity, the procedure for their preparation and the pharmaceutical compositions which contain them” (Magis Farmaceutici S.R.L., priority 1983, dated 1985).

What was measured:
[1] = Acute toxicity in the mouse (DL50, Litchfield and Wilcoxon method); type: in vivo; conditions: in vivo
Procedure: (§1) where R is as defined above, in the presence of an alkaline carbonate and of a catalyst, to obtain the corresponding formula (I) compound, as defined above, which, optionally, is salified. The new formula (I) compounds and their pharmaceutically acceptable salts, which form the object of this invention, have expectorant characteristics which are very useful for therapeutic applications. […] The peak level in the blood is reached 20-40 minutes after oral administration. This determines higher concentrations of active principle. With dogs, the half-life of the new derivatives in the blood is from 25-30 hours. It is also to be underlined that the new compounds are stable in both the stomach and the intestinal tract, hydrolizing after being absorbed. The complete reliability of the new compounds was determined by evaluating their acute toxicity. Acute toxicity was studies in the mouse, rat and guinea pig, comparing with ambroxol hydrochloride. The DL50 values were calculated by following the Litchfield and Wilcoxon method (Pharm. Exp. Therap. 1949, 96,99).

[2] = Acute toxicity in the rat (DL50, Litchfield and Wilcoxon method); conditions: in vivo
Procedure: as §1

[3] = Acute toxicity in the guinea pig (DL50, Litchfield and Wilcoxon method); conditions: in vivo
Procedure: as §1

[4] = system: mouse; test: Acute toxicity in the mouse (DL50, Litchfield and Wilcoxon method); type: in vivo; conditions: os
Procedure: as §1

## COc1ccccc1OCC(=O)O[C@H]1CC[C@H](NCc2cc(Br)cc(Br)c2N)CC1 [E/6001, N-(2-amino-3,5-dibromobenzyl)-trans-4-amino-1-(guaiacolglycolyl)-cyclohexane]
[1]; ip
  LD50: 375 mg/kg
[1]; iv
  LD50: 194 mg/kg
[1]; po, os
  LD50: 3850 mg/kg
[2]; ip
  LD50: 532 mg/kg
[2]; po, os
  LD50: 18700 mg/kg
[3]; ip
  LD50: 390 mg/kg
[3]; po, os
  LD50: 1650 mg/kg

## COc1cc(C)ccc1OCC(=O)O[C@H]1CC[C@H](NCc2cc(Br)cc(Br)c2N)CC1 [E/6002]
[1]; ip
  LD50: 390 mg/kg
[1]; iv
  LD50: 201 mg/kg
[1]; po, os
  LD50: 4000 mg/kg
[2]; ip
  LD50: 550 mg/kg
[2]; po, os
  LD50: 19600 mg/kg
[3]; ip
  LD50: 400 mg/kg
[3]; po, os
  LD50: 1700 mg/kg

## Nc1c(Br)cc(Br)cc1CN[C@H]1CC[C@H](O)CC1 [Ambroxol Hydrochlorate, N-(2-amino-3,5-dibromobenzyl)-trans-4-amino-cyclohexanol, reference compound]
[1]; ip
  LD50: 268 mg/kg
[1]; iv
  LD50: 138 mg/kg
[4]
  DL50: 2750 mg/kg
[2]; ip
  LD50: 380 mg/kg
[2]; po, os
  LD50: 13400 mg/kg
[3]; ip
  LD50: 280 mg/kg
[3]; po, os
  LD50: 1180 mg/kg

## Cc1ccccc1OCC(=O)O[C@H]1CC[C@H](NCc2cc(Br)cc(Br)c2N)CC1 [E/6004]
[1]; ip
  LD50: 365 mg/kg
[1]; iv
  LD50: 187 mg/kg
[1]; po, os
  LD50: 3700 mg/kg
[2]; ip
  LD50: 500 mg/kg
[2]; po, os
  LD50: 18000 mg/kg
[3]; ip
  LD50: 375 mg/kg
[3]; po, os
  LD50: 1610 mg/kg

## Cc1cccc(OCC(=O)O[C@H]2CC[C@H](NCc3cc(Br)cc(Br)c3N)CC2)c1 [E/6003, N-(2-amino-3,5-dibromobenzyl)-trans-4-amino-1-(m-cresolglycolyl)cyclohexane]
[1]; ip
  LD50: 360 mg/kg
[1]; iv
  LD50: 187 mg/kg
[1]; po, os
  LD50: 3700 mg/kg
[2]; ip
  LD50: 510 mg/kg
[2]; po, os
  LD50: 18000 mg/kg
[3]; ip
  LD50: 380 mg/kg
[3]; po, os
  LD50: 1600 mg/kg

## Cc1ccc(OCC(=O)O[C@H]2CC[C@H](NCc3cc(Br)cc(Br)c3N)CC2)cc1 [E/6005]
[1]; ip
  LD50: 360 mg/kg
[1]; iv
  LD50: 180 mg/kg
[1]; po, os
  LD50: 3700 mg/kg
[2]; ip
  LD50: 500 mg/kg
[2]; po, os
  LD50: 17800 mg/kg
[3]; ip
  LD50: 380 mg/kg
[3]; po, os
  LD50: 1600 mg/kg

## Cc1ccc(C(C)C)cc1OCC(=O)O[C@H]1CC[C@H](NCc2cc(Br)cc(Br)c2N)CC1 [E/6007, N-(2-amino-3,5-dibromobenzyl)-trans-4-amino-1-(carvacrolglycolyl)cyclohexane]
[1]; ip
  LD50: 390 mg/kg
[1]; iv
  LD50: 190 mg/kg
[1]; po, os
  LD50: 3900 mg/kg
[2]; ip
  LD50: 530 mg/kg
[2]; po, os
  LD50: 18500 mg/kg
[3]; ip
  LD50: 410 mg/kg
[3]; po, os
  LD50: 1700 mg/kg

## Cc1ccc(C(C)C)c(OCC(=O)O[C@H]2CC[C@H](NCc3cc(Br)cc(Br)c3N)CC2)c1 [E/6006, N-(2-amino-3,5-dibromobenzyl)-trans-4-amino-1-(thymolglycolyl)cyclohexane]
[1]; ip
  LD50: 380 mg/kg
[1]; iv
  LD50: 197 mg/kg
[1]; po, os
  LD50: 3900 mg/kg
[2]; ip
  LD50: 540 mg/kg
[2]; po, os
  LD50: 19000 mg/kg
[3]; ip
  LD50: 400 mg/kg
[3]; po, os
  LD50: 1680 mg/kg
